Source: ChEMBL document CHEMBL4325859, “Research advances on anticancer activities of matrine and its derivatives: An updated overview” (Eur J Med Chem, 2019)
In brackets after ≈: the same amount, converted by molar mass.

Columns and labels:
RPMI-8226 [1] = experiment: Growth inhibition of human RPMI8226 cells at 500 mg/L after 48 hrs by MTT assay relative to control; assay type: functional; conditions: RPMI-8226, 48 h, read-out: GI
EJ = experiment: Antiproliferative activity against human EJ cells after 48 hrs by CCK8 assay; assay type: functional, cell-based
HepG2 [2] = experiment: Antiproliferative activity against human HepG2 cells at 1 mg/ml after 72 hrs by MTT assay relative to control; assay type: functional
RPMI-8226 [3] = experiment: Induction of apoptosis in human RPMI8226 cells at 1500 mg/L after 48 hrs by Annexin V/propidium iodide staining based flow cytometry (reference value: 3.02 +/- 1.19%); assay type: functional
[4] = Antiproliferative activity against human 95-D cells at 2 g/L after 48 hrs by MTT assay relative to control; assay type: functional
HOS = experiment: Growth inhibition of human HOS cells at 0.8 mg/ml after 48 hrs by MTT assay relative to control; assay type: functional; conditions: read-out: GI
U-266 = experiment: Antiproliferative activity against human U266 cells after 24 hrs by MTT assay; assay type: functional, cell-based; conditions: U-266, 24 h
U2OS [5] = experiment: Growth inhibition of human U2OS cells after 48 hrs by MTT assay; assay type: functional, cell-based
SGC-7901 = experiment: Induction of apoptosis in human SGC7901 cells at 30 mg/ml after 48 hrs by propidium iodide staining based flow cytometry (reference value: 3.54 +/- 0.47%); assay type: functional
D341 cell line = experiment: Induction of apoptosis in human D341 cells at 0.5 to 2 mg/ml after 24 to 72 hrs by Annexin V-FITC/propidium iodide staining based flow cytometry (reference value: 5.74 +/- 0.09%); assay type: functional
C-33-A = experiment: Induction of apoptosis in human C33A cells at 50 ug/ml after 48 hrs by Annexin V-FITC/propidium iodide staining based flow cytometry relative to control; assay type: functional
SW480 = experiment: Antitumor activity against human SW480 cells xenografted in Balb/c mouse assessed as tumor growth inhibition at 30 mg/kg, ip everyday relative to control; assay type: functional; conditions: read-out: TGI
KYSE-150 cell line [6] = experiment: Antiproliferative activity against human KYSE-150 cells assessed as cell viability at 1 mg/ml after 24 hrs by MTT assay relative to control; assay type: functional; conditions: KYSE-150, 24 h, read-out: Activity
[7] = Growth inhibition of human GRC1 cells at 0.5 g/L after 24 hrs by MTT assay relative to control; assay type: functional; conditions: read-out: GI
SAOS-2 [8] = experiment: Growth inhibition of human Saos2 cells at 3.2 mg/ml after 48 hrs by MTT assay relative to control; assay type: functional; conditions: SAOS-2, 48 h, read-out: GI
[9] = Growth inhibition of human GRC1 cells at 0.5 g/L after 96 hrs by MTT assay relative to control; assay type: functional; conditions: read-out: GI
UMR108 [10] = experiment: Growth inhibition of rat UMR108 cells assessed as cell proliferation at 0.5 mg/ml after 24 hrs by MTT assay (reference value: 0.405 +/- 0.007%); assay type: functional; conditions: UMR108, 24 h, read-out: Activity
HT-29 [11] = experiment: Growth inhibition of human HT-29 cells at 4 ml/L after 48 hrs by MTT assay relative to control; assay type: functional
SAOS-2 [12] = experiment: Growth inhibition of human Saos2 cells at 0.8 mg/ml after 48 hrs by MTT assay relative to control; assay type: functional; conditions: SAOS-2, 48 h, read-out: GI
PC-3 [13] = experiment: Induction of apoptosis in human PC3 cells assessed as late apoptotic cells at 75 mg/mL (reference value: 2.5%); assay type: functional
RPMI-8226 [14] = experiment: Antiproliferative activity against human RPMI8226 cells after 24 hrs by MTT assay; assay type: functional, cell-based; conditions: RPMI-8226, 24 h
U-937 = experiment: Antiproliferative activity against human U937 cells after 24 hrs by MTT assay; assay type: functional, cell-based; conditions: U-937, 24 h
RPMI-8226 [15] = experiment: Induction of apoptosis in human RPMI8226 cells at 500 mg/L after 48 hrs by Annexin V/propidium iodide staining based flow cytometry (reference value: 3.02 +/- 1.19%); assay type: functional
PC-3 [16] = experiment: Growth inhibition of human PC3 cells at 6 g/L after 72 hrs relative to control; assay type: functional; conditions: PC-3, 72 h, read-out: GI
MM1.S = experiment: Growth inhibition of human MM1S cells at […] after 24 hrs relative to control; assay type: functional; conditions: read-out: GI
HT-29 [17] = experiment: Synergistic growth inhibition of human HT-29 cells at 0.25 mg/ml cotreated with 1.25 ug/ml irinotecan by MTT assay relative to control; assay type: functional
SAOS-2 [18] = experiment: Growth inhibition of human Saos2 cells after 48 hrs by MTT assay; assay type: functional, cell-based; conditions: SAOS-2, 48 h
NB-4 = experiment: Antiproliferative activity against human NB4 cells after 24 hrs by MTT assay; assay type: functional, cell-based; conditions: NB-4, 24 h
DU-145 = experiment: Growth inhibition of human DU145 cells at 6 g/L after 72 hrs relative to control; assay type: functional; conditions: DU-145, 72 h, read-out: GI
HepG2 [19] = experiment: Antiproliferative activity against human HepG2 cells at 1 mg/ml after 48 hrs relative to control; assay type: functional
HepG2 [20] = experiment: Antiproliferative activity against human HepG2 cells at 1 mg/ml after 24 hrs by MTT assay relative to control; assay type: functional
SMMC-7721 = experiment: Antiproliferative activity against human SMMC7721 cells at 100 ug/ml after 72 hrs by MTT assay relative to control; assay type: functional
CCRF-CEM = experiment: Antiproliferative activity against human CCRF-CEM cells after 48 hrs by WST1 assay; assay type: functional, cell-based
U2OS [21] = experiment: Growth inhibition of human U2OS cells at 3.2 mg/ml after 48 hrs by MTT assay relative to control; assay type: functional; conditions: read-out: GI
UMR108 [22] = experiment: Growth inhibition of rat UMR108 cells assessed as cell proliferation at 1.5 mg/ml after 24 hrs by MTT assay (reference value: 0.405 +/- 0.007%); assay type: functional; conditions: UMR108, 24 h, read-out: Activity
HT-29 [23] = experiment: Growth inhibition of human HT-29 cells at 2 mg/ml by MTT assay relative to control; assay type: functional; conditions: read-out: GI
[24] = Growth inhibition of human GRC1 cells at 1.5 g/L after 96 hrs by MTT assay relative to control; assay type: functional; conditions: read-out: GI
[25] = Growth inhibition of human GRC1 cells at 1 g/L after 24 hrs by MTT assay relative to control; assay type: functional; conditions: read-out: GI
A549 = experiment: Antiproliferative activity against human A549 cells at 1 mg/ml relative to control; assay type: functional
KYSE-150 cell line [26] = experiment: Antiproliferative activity against human KYSE-150 cells assessed as cell viability at 2 mg/ml after 24 hrs by MTT assay relative to control; assay type: functional; conditions: KYSE-150, 24 h, read-out: Activity
PC-3 [27] = experiment: Induction of apoptosis in human PC3 cells assessed as late apoptotic cells at 25 mg/mL (reference value: 2.5%); assay type: functional
BXPC-3 = experiment: Antiproliferative activity against human BxPC3 cells after 72 hrs by MTT assay; assay type: functional, cell-based; conditions: BXPC-3, 72 h
RPMI-8226 [28] = experiment: Antiproliferative activity against human RPMI8226 cells after 48 hrs by MTT assay; assay type: functional, cell-based; conditions: RPMI-8226, 48 h
HT-29 [29] = experiment: Growth inhibition of human HT-29 cells at 32 mg/ml after 48 hrs by MTT assay relative to control; assay type: functional; conditions: HT-29, 48 h, read-out: GI

In the case of `O=C1CCC[C@@H]2[C@H]3CCCN4CCC[C@@H](CN12)[C@@H]34` [MATRINE], the inhibition of growth at 500 µg/mL (RPMI-8226 [1]) is reported as 17.9%, the IC50 (EJ) is reported as 5.09 mM and the Activity (HepG2 [2]) is reported as 18.25%. For the same molecule, the Activity (RPMI-8226 [3]) was 31.1%, the Activity [4] was 20% and the inhibition of growth at 800 µg/mL (HOS) was 10%. The IC50 (U-266) was 2180 µg/mL (≈ 8.78 mM), the IC50 (U2OS [5]) was 7.25 mM and the Activity (SGC-7901) was 12.89%. The Activity (D341 cell line) was 56.1%, the Activity (C-33-A) was 15.37% and the inhibition in vivo at 30 mg/kg (SW480) was 13.7%. For the same molecule, the viability at 1000 µg/mL (KYSE-150 cell line [6]) was 69.8%, the inhibition of growth at 500 µg/mL [7] was 11.5% and the inhibition of growth at 3200 µg/mL (SAOS-2 [8]) was 70%. The inhibition of growth at 500 µg/mL [9] was 22.4%, the growth at 500 µg/mL (UMR108 [10]) was 0.324% and the “growth inhibition (GI)” value (HT-29 [11]) was 54.22%. It also gave an inhibition of growth at 800 µg/mL (SAOS-2 [12]) of 10%, an Activity (PC-3 [13]) of 15.1% and an IC50 (RPMI-8226 [14]) of 2250 µg/mL (≈ 9.06 mM). For the same molecule, the IC50 (U-937) was 0.00237 mM, the Activity (RPMI-8226 [15]) was 9.75% and the inhibition of growth at 6000 µg/mL (PC-3 [16]) was 90%. The inhibition of growth at 2 g/mL (MM1.S) was 73%, the “growth inhibition (GI)” value (HT-29 [17]) was 31.08% and the IC50 (SAOS-2 [18]) was 4.27 mM. For the same molecule, the IC50 (NB-4) was 0.00266 mM, the inhibition of growth at 6000 µg/mL (DU-145) was 90% and the Activity (HepG2 [19]) was 48.39%. It also gave an Activity (HepG2 [20]) of 6.28%, an Activity (SMMC-7721) of 55.1% and an IC50 (CCRF-CEM) of 9.67 mM. It also gave an inhibition of growth at 3200 µg/mL (U2OS [21]) of 77%, a growth at 1500 µg/mL (UMR108 [22]) of 0.245% and an inhibition of growth at 2000 µg/mL (HT-29 [23]) of 52.9%. For the same molecule, the inhibition of growth at 1500 µg/mL [24] was 60.2%, the inhibition of growth at 1000 µg/mL [25] was 23.6% and the Activity (A549) was 52.68%. For the same molecule, the viability at 2000 µg/mL (KYSE-150 cell line [26]) was 53.7%, the Activity (PC-3 [27]) was 14.6% and the IC50 (BXPC-3) was 2.94 mM. It also gave an IC50 (RPMI-8226 [28]) of 1640 µg/mL (≈ 6.6 mM) and an inhibition of growth at 32000 µg/mL (HT-29 [29]) of 84.2%.
